US20070265238A1, “METHOD FOR ACCELERATING REENTRAINMENT OF A CIRCADIAN RHYTHM” (priority 2006, published 2007)

System: body temperature rhythms
Assay: Reentrainment of body temperature circadian rhythm after eastward jet travel across 6 time zones (Detroit to Vienna)
Format: in vivo, human
Settings: applied beneath nostrils each morning on awakening; for length of time to reestablish stable body temperature rhythms: women, vs control vehicle (mineral oil and clove oil), FIG. 1
Method: This experimental involved 15 subjects who were traveling from Detroit, Michigan to Vienna, Austria by air, a journey which spanned 6 time zones. The subjects comprised 8 women and 5 men aged 18-19 and 2 women […]. Two groups of compositions were prepared. The first comprised an experimental formulation containing 20 micrograms of 4,16-androstadien-3-one dissolved in a mixture of mineral oil and clove oil. A second composition comprising a control/placebo consisted of the mineral oil and clove oil. The 2 compositions were each packaged in 5 ml and supplied to selected test subjects along with cotton-tipped applicators. The test and control materials were randomly distributed, and participants were unaware of which composition they had obtained.
Upon arrival in Vienna, each participant was directed to place a small amount of their particular composition directly beneath their nostrils with a new cotton applicator immediately upon awakening each morning. The participants were directed to allow the compositions to remain on their skin for at least an hour.
External temperature monitors (iButton, Inc., Pittsburgh, Pa.) were affixed to each of the subjects with a gauze protective layer between the skin and the monitoring device. The monitors were covered with neoprene material for insulation against environmental temperature interference and held in place with a waterproof medical bandage which was changed every 3 days or as necessary. The monitoring devices were set to acquire temperature every 10 minutes throughout the entire period of the experiment and for a 3-day period prior to travel. Participants also kept daily event logs to monitor the timing of activities that could influence temperature data such as sleep and wake times, showers, exercise and naps. […]
Data were analyzed to determine the length of time needed for core temperature rhythms to reentrain with the new time schedule, returning to a phase angle of entrainment similar to that recorded before travel. […]

C[C@@]12C=CC[C@H]1[C@@H]1CCC3=CC(=O)CC[C@]3(C)[C@H]1CC2 [4,16-androstadien-3-one]
reentrainment rate of body temperature rhythms (men, vs control vehicle): no effects | length of time to reestablish stable body temperature rhythms: accelerate reestablishment of body temperature rhythms | length of time to reestablish stable body temperature rhythms (listed as pheromone): reentrained significantly faster
